A short description of the series: Solubility studies (Example 4). The series is classed as physicochemical. The procedure: In order to determine the solubility of (R)-3-(4-(7H-pyrrolo[2,3-d]pyrimidin-4-yl)-1H-pyrazol-1-yl)-3-cyclopentylpropanenitrile (free base) or its phosphate salt, approximately 5 mL of a potential solvent was added to approximately 50 mg of the API or its salt at room temperature. The mixtures were suspended and rotated on a wheel. If the mixtures became clear solutions, more solid material was added. The suspensions were then suspended over 24 hours. The samples were filtered through 0.2 micron filters. The liquid portions were collected and diluted with 50/50 water methanol/water. The concentrations of the diluted samples were analyzed by HPLC. When the free base or salt was fairly insoluble, the results are approximate only.

Structures can show the parent of a compound that is named as a salt.

For the molecule `N#CC[C@H](C1CCCC1)n1cc(-c2ncnc3[nH]ccc23)cn1` [Phosphate Salt, (R)-3-(4-(7H-pyrrolo[2,3-d]pyrimidin-4-yl)-1H-pyrazol-1-yl)-3-cyclopentylpropanenitrile Phosphoric Acid Salt], the Solubility (commonly how much of the substance goes into solution per volume) is 3000 µg/mL (Benzyl alcohol); 7300 µg/mL (Ethanol); 11000 µg/mL (Glycerin); 600 µg/mL (Isopropanol); 400 µg/mL (Isosorbide dimethyl ether); 100 µg/mL (Olelyl alcohol). In addition, the Solubility stood at 23000 µg/mL (PEG 200); 14000 µg/mL (PEG 300); 24000 µg/mL (Propylene glycol); 10000 µg/mL (Transcutol); 51000 µg/mL (Trolamine); 23000 µg/mL (Water/PEG 200 (50/50)). Also, the Solubility is, setting by setting: (Water/glycerin/trolamine (40/40/20)) 18000 µg/mL; (Water/glyercin (50/50)) 21000 µg/mL; (Water, room temperature) 2700 µg/mL; (pH 4, citric buffer, 0.1M) 1500 µg/mL; (pH 6, citric buffer, 0.1M) 200 µg/mL.

(Values after patent US12544381B2, “Topical formulation for JAK inhibitor” (Incyte Corporation, priority 2010, dated 2026).)
